Data: patent EP2664616A1, “Hydantoin and thiohydantoin derivatives as antiviral drugs” (priority 2012, dated 2013)

What follows are compounds tested on HCV replicon Luc Neo ET (assay: HCV replication inhibition assay (replicon assay, luciferase reporter)). Settings: Hepatitis C virus; Huh-7 cell lines containing HCV replicon Luc Neo ET; 72 hours with compound; 1 % DMSO; firefly luciferase reporter; concentration that produces 50 % of replication inhibition; read-out: EC50 Replicon LucneoET.
Format: cell-based
Method: The compounds according to the present invention were tested for their ability to inhibit HCV replication as follows:
Huh-7 cell lines containing HCV replicon Luc Neo ET (Reblikon) were maintained in DMEM supplemented with 10% SVF, 2 mM glutamine, and 1 X NEAA, 100 U / ml penicillin, and 100 µg / ml streptomycine. Cells were maintained in medium supplemented with 0.5 mg/ml G418, at 37°C and 5% CO2 in a humidified atmosphere. Cells were dissociated at sub confluence with trypsin EDTA 1X.
Replicon Luc Neo ET is bicistronic expression constructs (Lohmann et al, 1999, Science 285, 110-113). In brief, the structural genes of the HCV genome were replaced by heterologous sequences; the gene encoding the neomycin phosphotransferase (NPT) and the internal ribosome entry site (IRES) of the encephalomyocarditis virus (EMCV). The bicistronic construct is therefore composed of the following elements: HCV-IRES nucleotides 1-389 for Luc Neo ET, the NPT gene, the EMCV-IRES directing translation of downstream HCV sequences from NS2 or NS3 up to the authentic 3' end of the genome. HCV Polyprotein of Luc Neo ET replicon harbours the cell culture adaptive mutations E1202G, T1280I, K1846T. G418-resistance is only possible with cells containing high amounts of replicon.
Cells were dissociated the day before addition of compounds and seeded in 96 well-plates at a final concentration of 27 777.77 cells.ml^-1.cm^-2 in 90µl final volume of culture medium per well and were maintained at 37°C and 5% CO2 in a humidified atmosphere for 24 hours. 10 µl of compounds to be tested were added 24 hours after seeding. Final concentration of DMSO was 1 %. Cells were incubated in the presence of compounds for 72 hours after which expression of firefly luciferase reporter gene was quantified. Briefly, culture medium was removed and cells were lysed by addition of 100 µl of lysis buffer containing 125 mM Tris Phosphate ph 7.8, 10 mM EDTA, 5 mM DTT, 50 % glycerol and 5 % Triton. Plates were vortexed 10 min at 1300 rpm. 100µl of luciferin solution 1X were added to each well. Luciferin solution contained 40 mM Tris Phosphate ph 7.8, 0.2 mM EDTA, 67 mM DTT, 2.14 mM MgCl2, 5.4 mM MgSO4, 4.7 x 10^-4 M luciferin, 5.3 x 10^-4 M ATP and 2.7 x 10^-4 M Acetyl co enzyme A. Luminescence was immediately measured with Berthold Microlumat Plus LB 96V luminometer with an integration of 1 sec. Inhibition was calculated using the formula: % inhibition = 1-[(RLUsample-RLUbackground)/(RLUsignal-RLUbackground)].
The Table 1 below illustrates data on the biological activity of compounds of the present invention. Results are expressed as EC50 which is the concentration that produces 50 % of replication inhibition. Table 1. HCV replication inhibition assay

| Compound | EC50 [µM] |
| --- | --- |
| Cc1ccc(NC(=O)CC2C(=O)N(c3ccccc3)C(=S)N2CCc2ccc(Cl)cc2)cc1 (stereo not shown) [Example 37, 2-{3-[2-(4-chlorophenyl)ethyl]-5-oxo-1-phenyl-2-sulfanylideneimidazolidin-4-yl}-N-(4-methylphenyl)acetamide] | < 5 |
| COc1ccc(NC(=O)CC2C(=O)N(c3ccc(F)cc3)C(=S)N2CCc2ccc(N3CCOCC3)cc2)cc1 (stereo not shown) [Example 52, 2-[1-(4-fluorophenyl)-3-{2-[4-(morpholin-4-yl)phenyl]ethyl}-5-oxo-2-sulfanylideneimidazolidin-4-yl]-N-(4-methoxyphenyl)acetamide] | < 0.5 |
| COc1ccc(NC(=O)CC2C(=O)N(c3ccccc3)C(=S)N2CCc2ccc(Cl)cc2)nc1 (stereo not shown) [Example 61, 2-{3-[2-(4-chlorophenyl)ethyl]-5-oxo-1-phenyl-2-sulfanylideneimidazolidin-4-yl}-N-(5-methoxypyridin-2-yl)acetamide] | < 0.5 |
| COc1ccc(CCN2C(=S)N(c3ccc(F)cc3)C(=O)C2CC(=O)Nc2ncc(OC)cn2)cc1 (stereo not shown) [Example 84, 2-[1-(4-fluorophenyl)-3-[2-(4-methoxyphenyl)ethyl]-5-oxo-2-sulfanylideneimidazolidin-4-yl]-N-(5-methoxypyrimidin-2-yl)acetamide] | < 0.5 |
| COc1ccc(CCN2C(=S)N(c3ccccc3)C(=O)C2CC(=O)Nc2ccc(C)nn2)cc1 (stereo not shown) [Example 68, 2-{3-[2-(4-methoxyphenyl)ethyl]-5-oxo-1-phenyl-2-sulfanylideneimidazolidin-4-yl}-N-(6-methylpyridazin-3-yl)acetamide] | < 30 |
| CN(C)c1ccc(NC(=O)CC2C(=O)N(c3ccc(F)cc3)C(=O)N2CCc2cccs2)cc1 (stereo not shown) [Example 45, N-[4-(dimethylamino)phenyl]-2-[1-(4-fluorophenyl)-2,5-dioxo-3-[2-(thiophen-2-yl)ethyl]imidazolidin-4-yl]acetamide] | < 5 |
| O=C(CC1C(=O)N(c2ccccc2)C(=S)N1CCc1ccc(Cl)cc1)Nc1ccon1 (stereo not shown) [Example 64, 2-{3-[2-(4-chlorophenyl)ethyl]-5-oxo-1-phenyl-2-sulfanylideneimidazolidin-4-yl}-N-(1,2-oxazol-3-yl)acetamide] | < 5 |

Same assay, conditions: Huh-7 cell lines containing HCV replicon Luc Neo ET; 72 hours with compound; 1 % DMSO; firefly luciferase reporter; concentration that produces 50 % of replication inhibition; read-out: EC50 Replicon LucneoET

| Compound | EC50 [µM] |
| --- | --- |
| N-[4-(dimethylamino)phenyl]-2-[1-(4-fluorophenyl)-4-hydroxy-3-[2-(4-methoxyphenyl)ethyl]-5-oxo-2-sulfanylideneimidazolidin-4-yl]acetamide [Example 77] | < 0.5 |
| COc1ccc(NC(=O)CC2C(=O)N(c3ccc(F)cc3)C(=S)N2CCc2ccc(Cl)cc2)cc1 (stereo not shown) [Example 9] | < 0.5 |
| CCOc1ccc(NC(=O)CC2C(=O)N(c3ccccc3)C(=S)N2CCc2ccccc2F)cc1 (stereo not shown) [Example 7] | < 0.5 |
| CCCOc1ccc(NC(=O)CC2C(=O)N(C3CCCCC3)C(=S)N2Cc2ccc(OC)cc2)cc1 (stereo not shown) [Example 29] | < 30 |
| O=C(CC1C(=O)N(c2ccccc2)C(=S)N1CCc1ccc(Cl)cc1)Nc1ccccc1 (stereo not shown) [Example 11] | < 5 |
| COc1ccc(NC(=O)CC2C(=O)N(Cc3ccccc3)C(=S)N2CCc2ccc(Cl)cc2)cc1 (stereo not shown) [Example 32] | < 30 |
| CCOc1ccc(NC(=O)CC2C(=O)N(c3ccccc3)C(=O)N2CCC(C)C)cc1 (stereo not shown) [Example 15] | < 5 |
| COC(=O)c1ccc(NC(=O)CC2C(=O)N(c3ccccc3)C(=S)N2CCc2ccc(Cl)cc2)cc1 (stereo not shown) [Example 25] | < 5 |
| COc1ccc(NC(=O)CC2C(=O)N(c3ccc(F)cc3)C(=S)N2CCc2ccc(OCCNC(=O)OC(C)(C)C)cc2)nc1 (stereo not shown) [Example 98] | < 0.5 |
| COc1ccc(/C=C/N2C(=S)N(c3ccc(F)cc3)C(=O)C2CC(=O)Nc2ccc(OC)cn2)cc1 (stereo not shown) [Example 95] | < 0.5 |
| CCCOc1ccc(NC(=O)CC2C(=O)N(c3ccc(F)cc3)C(=S)N2CCCN2CCN(CC)CC2)cc1 (stereo not shown) [Example 31] | < 30 |
| N-[4-(dimethylamino)phenyl]-2-{4-hydroxy-3-[2-(4-methoxyphenyl)ethyl]-5-oxo-1-phenyl-2-sulfanylideneimidazolidin-4-yl}acetamide [Example 70] | < 0.5 |
